Experimental data published in US20240366624A1, “METHODS AND COMPOSITIONS FOR TREATING THROMBOTIC DISEASE” (Washington University, priority 2023, published 2024).

Tests used:
ERO1α = molecular target: T1, ERO1α (Homo sapiens, UniProt Q96HE7); assay: ERO1α activity assay; assay type: biochemical
T1 sequence (Q96HE7 24-468): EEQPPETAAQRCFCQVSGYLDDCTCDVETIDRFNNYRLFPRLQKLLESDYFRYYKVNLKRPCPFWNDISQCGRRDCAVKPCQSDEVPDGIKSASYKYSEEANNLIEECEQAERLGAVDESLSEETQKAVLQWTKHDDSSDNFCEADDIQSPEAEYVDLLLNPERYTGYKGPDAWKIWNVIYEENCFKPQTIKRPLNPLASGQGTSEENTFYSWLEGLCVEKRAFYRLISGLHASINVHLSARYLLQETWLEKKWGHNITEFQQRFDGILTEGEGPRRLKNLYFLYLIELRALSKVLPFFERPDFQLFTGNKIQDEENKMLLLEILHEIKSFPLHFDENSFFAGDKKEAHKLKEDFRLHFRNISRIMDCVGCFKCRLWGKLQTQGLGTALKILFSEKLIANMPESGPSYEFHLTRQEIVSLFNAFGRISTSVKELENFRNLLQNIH
From the text: (§1) FIG. 17(A-F) is an exemplary embodiment of identification of novel ERO1α inhibitors by high throughput screening in accordance with the present disclosure. FIG. 17A: A scheme of an ERO1α activity assay. FIG. 17B: Screening of chemical libraries in the ERO1α activity assay. FIG. 17C: The inhibitory effect of selected compounds on ERO1α activity. FIG. 17D: The inhibitory effect of selected compounds on PDI activity. FIG. 17E: The inhibitory effect of selected compounds on H2O2 activity. FIG. 17F: The inhibitory effect of selected compounds on thiol-reacting activity. The data represent the mean±SD (n=3). *P<0.05, **P<0.01, ***P<0.001, and ****P<0.0001 vs. vehicle control, Student's t-test.
(§2) To identify a novel ERO1α inhibitor, 5800 compounds were screened using an ERO1α activity assay (FIG. 17A and FIG. 17B). […] The selected compounds were further tested in assays measuring PDI, antioxidant, and thiol-reacting activities (FIG. 17D through FIG. 17F). […] B12 inhibited P-selectin exposure and αIIbβ3 activation in agonist-activated mouse and human platelets in a concentration-dependent manner (FIG. 18B through FIG. 18E).

PDI = PDI (Homo sapiens, UniProt P07237); assay: PDI activity assay; assay type: biochemical
From the text: as §1, §2

[1] = H2O2 (antioxidant) activity assay; assay type: biochemical
From the text: as §1, §2

[2] = thiol-reacting (GSH) activity assay; assay type: biochemical
From the text: as §1, §2

[3] = molecular target: T2, MAO-A (monoamine oxidase A) (Homo sapiens, UniProt P21397); assay: MAO-A activity assay; assay type: biochemical
T2 sequence (P21397 1-527): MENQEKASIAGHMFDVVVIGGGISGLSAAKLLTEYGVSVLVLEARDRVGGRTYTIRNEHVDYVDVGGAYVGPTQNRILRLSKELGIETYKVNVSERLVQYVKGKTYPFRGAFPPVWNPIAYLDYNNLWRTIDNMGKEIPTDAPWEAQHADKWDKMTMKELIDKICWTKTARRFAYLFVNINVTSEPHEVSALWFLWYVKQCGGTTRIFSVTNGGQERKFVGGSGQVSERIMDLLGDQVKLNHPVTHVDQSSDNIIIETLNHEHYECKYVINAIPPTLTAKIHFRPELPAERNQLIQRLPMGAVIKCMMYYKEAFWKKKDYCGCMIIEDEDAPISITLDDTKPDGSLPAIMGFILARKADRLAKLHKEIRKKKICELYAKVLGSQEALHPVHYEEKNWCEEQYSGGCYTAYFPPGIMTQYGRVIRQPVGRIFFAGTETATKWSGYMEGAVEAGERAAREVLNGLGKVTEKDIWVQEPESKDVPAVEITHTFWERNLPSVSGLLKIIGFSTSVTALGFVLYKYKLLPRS

mouse platelets = assay: Flow cytometry of P-selectin exposure and αIIbβ3 integrin activation, mouse platelets; assay type: cell-based; settings: agonist-activated mouse platelets, concentration-dependent
Description: FIG. 10(A-E) is an exemplary embodiment of 15E9 not affecting platelet activation and aggregation in accordance with the present disclosure. Mouse platelets were treated with 0.02-0.03 (FIG. 10A P-selectin, FIG. 10B aIIbβ3) or 0.025 U/ml thrombin (FIG. 10C) in the presence of 10 μg/ml mouse IgG2a (IgG2a) or a blocking anti-ERO1α antibody (15E9). Flow cytometry (FIG. 10(A-B)) and aggregation (FIG. 10C) assays were performed. FIG. 10D: Human platelets were treated with 0.025 U/ml thrombin in the presence of mouse IgG2a (mIgG2a) or 10 μg/ml 15E9 and 16B6, followed by measuring aggregation. […] P values determined by unpaired Student's t-test (vs. mIgG1).
FIG. 18(A-R) is an exemplary embodiment of novel small-molecule inhibitors recapitulating the defect in Ero1α (endoplasmic reticulum oxidoreductase 1a)-null platelets in accordance with the present disclosure. […] After incubation with a different concentration of B12-5, the specific interaction between B12-5 and ERO1α was measured by subtracting the nonspecific binding. The KD value was calculated from the Kon and Koff values. […] P values determined by ANOVA and Dunnett test (FIG. 18(B-E), FIG. 18(1-L), and FIG. 18(O-R) [for B12-5]) or Student t test (FIG. 18M, FIG. 18N, and FIG. 18(O-R) [for BAPTA (1,2-bis(o-aminophenoxy)ethane-N,N,N′,N′-tetraacetic acid)]). […]

human platelets = assay: Flow cytometry of P-selectin exposure and αIIbβ3 integrin activation, human platelets; assay type: cell-based; settings: agonist-activated human platelets, concentration-dependent
From the text: FIG. 18(A-R) is an exemplary embodiment of novel small-molecule inhibitors recapitulating the defect in Ero1α (endoplasmic reticulum oxidoreductase 1a)-null platelets in accordance with the present disclosure. FIG. 18A: The structure of B12 and its inhibitory effect on ERO1α activity. FIG. 18(B-E): The inhibitory effect of B12 on P-selectin exposure and αIIbβ3 integrin activation in (FIG. 18B and FIG. 18C) mouse and (FIG. 18D and FIG. 18E) human platelets. FIG. 18F: The structure of B12-5 and its inhibitory effect on ERO1α activity. FIG. 18G: A docking model of B12-5-ERO1α (3AHQ) and flavin adenine dinucleotide (FAD)-ERO1α complex. There are pi-sulfur interactions of the phenothiazine head group (B112-5) or a tricyclic ring (FAD) with Met389 and Cys397. Also, there are H bond interactions between the tail/alkyl group and His255, Asn259, and Arg287. […] After incubation with a different concentration of B12-5, the specific interaction between B12-5 and ERO1α was measured by subtracting the nonspecific binding. The KD value was calculated from the Kon and Koff values. […] P values determined by ANOVA and Dunnett test (FIG. 18(B-E), FIG. 18(1-L), and FIG. 18(O-R) [for B12-5]) or Student t test (FIG. 18M, FIG. 18N, and FIG. 18(O-R) [for BAPTA (1,2-bis(o-aminophenoxy)ethane-N,N,N′,N′-tetraacetic acid)]). […]

Sequence of PDI (P07237 18-508, species assumed): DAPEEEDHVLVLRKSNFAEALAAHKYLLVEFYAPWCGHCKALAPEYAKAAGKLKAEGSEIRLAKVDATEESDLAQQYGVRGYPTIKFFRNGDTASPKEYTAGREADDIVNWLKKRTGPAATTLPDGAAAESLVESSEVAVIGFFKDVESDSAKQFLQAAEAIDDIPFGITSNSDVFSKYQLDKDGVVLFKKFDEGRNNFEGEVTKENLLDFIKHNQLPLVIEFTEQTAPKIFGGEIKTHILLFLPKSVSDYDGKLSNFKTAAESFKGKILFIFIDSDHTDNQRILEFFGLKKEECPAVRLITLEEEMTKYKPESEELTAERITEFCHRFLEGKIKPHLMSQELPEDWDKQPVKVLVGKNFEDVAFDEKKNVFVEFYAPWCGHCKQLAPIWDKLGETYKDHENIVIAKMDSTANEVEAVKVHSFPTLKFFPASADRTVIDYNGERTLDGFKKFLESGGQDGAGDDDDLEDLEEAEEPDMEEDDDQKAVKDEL

Structure (SMILES): O=C(CSc1nc(O)c2nc[nH]c2n1)N1c2ccccc2Sc2ccccc21 [B12]
- inhibition at 20 µM (ERO1α): 72.9 ± 12%
- IC50 (ERO1α; read-out: IC50, ERO1α activity): 12.4 µM
- inhibition at 100 µM (PDI): 4.8 ± 1%
- effect on PDI activity (PDI; at or up to 100 μM): without affecting
- H2O2 inhibition at 100 μM (%) ([1]; 100 μM): 4.7 ± 1%
- effect on H2O2 (antioxidant) activity ([1]; at or up to 100 μM): without affecting
- GSH inhibition at 100 μM (%) ([2]; 100 μM): 5.1 ± 2%
- effect on thiol-reacting activity ([2]; at or up to 100 μM): without affecting
- inhibition at 100 µM [3]: 25.3 ± 5%
- P-selectin exposure and αIIbβ3 activation (mouse platelets): inhibited
- P-selectin exposure and αIIbβ3 activation (human platelets): inhibited
